What all share (type): in vivo
The subject of assay [1] is C57BL/6J mice subjected to ICH. Put plainly: Histopathology, hematoma (lesion) volume after ICH. Conditions: 1 mg/kg i.p. 45 minutes prior to ICH, then twice daily; 72 hours after ICH; mean±SEM. How it is done:
(§1) Animal Preparation and Intracerebral Infusion. Adult male C57BL/6J mice weighing 23-30 g were used. Mice were randomized to receive intraperitoneal injection of either C3aRA (1 mg/kg) (SB290157, Calbiochem, Darmstadt, Germany) diluted in PBS and DMSO (1.16% v/v), or an equal volume of vehicle (PBS and DMSO, 1.16% DMSO v/v) either 45 minutes prior to ICH induction or 6 and 12 hours after induction of ICH, followed in both cohorts by twice daily doses for 72 hours. […] Sham animals were given PBS and DMSO (1.16% v/v) in the same manner.
Mice were anesthetized with a single intraperitoneal dose of ketamine (90 mg/kg) and xylazine (5 mg/kg). Next, the mice were placed in a stereotactic frame (ASI Instruments, Inc., Warren, Mich., USA) and subjected to ICH using autologous blood infusion as previously described (Rynkowski M A et al, 2008, Nat Protoc 3: 122-128), Briefly, a 1-mm burr hole was drilled 2.3 mm lateral to the midline and 0.2 mm anterior to the bregma. Thirty μL of autologous whole blood were drawn from the tail artery into a capillary tube. […]
Histopathology and determination of lesion volume. […] Striatal lesion volume was determined by digitizing serial coronal sections ([…]) to span the entire hematoma. […] Volume of the lesion (mm^3) was then determined by summation of the lesion area in each coronal section and integrating over the section depth of 0.5 mm.

The subject of assay [2] is model of focal ischemic stroke. The assay is described as follows: Dose-response trial in a model of focal ischemic stroke. To be noted: comparing 0.1, 0.5, 1 and 5 mg/kg.
Assay [3] concerns C57BL/6J mice subjected to ICH. Put plainly: Morris water-maze test (MWM) after ICH. Conditions: then twice daily, 72 hours after ICH, mean±SEM. As for the experimental part: as §1
Mice were anesthetized with a single intraperitoneal dose of ketamine (90 mg/kg) and xylazine (5 mg/kg). […]
Neurofunction and behavioral testing. Sensorimotor function was evaluated by means of the 28-point neurological function score, corner test and forelimb placing tests, which were performed pre-operatively and at 6, 24, 48 and 72 hour post-injury. Navigational memory was evaluated with the means of a Morris water-maze (MWM) test pre-operatively and at 72 hours post ICH. […]
Morris water-maze test (MWM). […] The time, in seconds, spent by each animal to find the platform was recorded. […] The time spent in the quadrant where the platform had been situated before was recorded. […]

This is an account of results in patent US9180160B2, “Complement inhibitors for treatment of injury from intracerebral hemorrhage” (The Trustees of the University of Pennsylvania, priority 2008, dated 2015).

Turning to `NC(N)=NCCC[C@H](NC(=O)COCC(c1ccccc1)c1ccccc1)C(=O)O` [C3aRA], the mean hematoma volume in assay [1] stood at 12.17±1.33 mm^3. This compound returned a most effective dose in assay [2] of 1 mg/kg. The “MWM time spent in the target quadrant” value in assay [3] (1 mg/kg i.p. 45 minutes prior to ICH) was determined as 19.62 ± 1.08 s; in assay [3] (1 mg/kg i.p. first at 6 h and 12 h after ICH) it was 18.9 ± 1.3 s.
